Publication PMC9610999, “Itraconazole-Induced Increases in Gilteritinib Exposure Are Mediated by CYP3A and OATP1B” (Molecules, 2022)
Like-named read-outs stand apart in the source and are kept apart here.

Experiments:
[1] = Plasma pharmacokinetics of oral gilteritinib in mice, with or without itraconazole pretreatment; type: in vivo; conditions: for Cmax / AUC(0-t): male, mouse, plasma, po, 10 mg/kg, gilteritinib 10 mg/kg p.o., mean (SD); for AUC(0-t): read-out: Gilteritinib AUC0–24h
Description: Male and female CYP3A(−/−) mice and age- and sex-matched wild-type mice on an FVB/NTac (CYP3A(+/+)) background were bred in-house. Male OATP1B2(−/−) mice and age and sex-matched wild-type mice on a DBA1/lacJ (OATP1B2(+/+)) background were bred in-house. All mice were aged 8–16 weeks and weighed 18–30 g. Littermates of the same sex were housed in groups of five or fewer in a temperature- and light-controlled environment (12-h light/dark cycles) in cages lined with absorbent bedding. Mice were given free access to standard food and water. All breeding and experimental procedures were conducted with the approval of the University Laboratory Animal Resources Animal Care and Use Committee at The Ohio State University under protocol number 201500000101-R2.
For in vivo pharmacokinetic studies, mice were randomly divided into experimental groups of equal size. Gilteritinib powder was dissolved in 0.5% methylcellulose solution in distilled sterile water at a concentration of 2 mg/mL and was administered via oral gavage at a body weight normalized dose of 10 mg/kg. The dose of gilteritinib was chosen based on previous preclinical characterization of gilteritinib pharmacokinetics. Itraconazole powder was dissolved in a solvent comprised of 5% DMSO, 70% PEG300, and 25% distilled sterile water and administered orally at a dose of 100 mg/kg. The dose of itraconazole was based on previous work studying preclinical DDI with itraconazole. For combination treatments, itraconazole was always given 30 min prior to gilteritinib.
Pharmacokinetic studies were performed in accordance with a repeat sampling strategy described previously. After a single dose of gilteritinib, 20–40 μL of whole blood samples were collected from each mouse at time points ranging from 0.5–24 h after dosing. Samples procured during the first three time points were collected from the submaxillary vein using a sterile, disposable 4 mm or 5 mm Goldenrod animal blood lancet and collected into a glass micro-hematocrit heparinized capillary tube. For samples obtained at the fourth and fifth time points, the mice were sedated using 2% isoflurane and whole blood was obtained via the retro-orbital venous plexus. At the final time point, mice were euthanized via carbon dioxide inhalation, whole blood was collected by cardiac puncture with a needle and 1-mL syringe and transferred to a 1.5-mL heparinized tube. All samples were centrifuged at 13,000× g for 5 min and the plasma supernatant was transferred to a 0.5-mL tube, snap-frozen on dry ice, and stored at −80 °C until the day of analysis.
Pharmacokinetic parameters were estimated using non-compartmental analyses using Phoenix WinNonlin version 8.1 (Certara, Princeton, NJ, USA). Estimated measures of exposure included the peak plasma concentration (Cmax) and the area under the plasma concentration–time curve (AUC).

[2] = target: T1, OATP1B2 (Mus musculus, UniProt Q9JJL3); assay: Transport inhibition assay: 8-FcA uptake in OATP1B2 overexpressing HEK293 cells; type: cell-based; conditions: OATP1B2 overexpressing HEK293 cells vs vector control; fluorescent probe 8-FcA; read-out: IC50, inhibition of OATP1B2 function
T1 construct: expressed in transfected cells; host or cells: HEK293
T1 sequence (Q9JJL3 1-689): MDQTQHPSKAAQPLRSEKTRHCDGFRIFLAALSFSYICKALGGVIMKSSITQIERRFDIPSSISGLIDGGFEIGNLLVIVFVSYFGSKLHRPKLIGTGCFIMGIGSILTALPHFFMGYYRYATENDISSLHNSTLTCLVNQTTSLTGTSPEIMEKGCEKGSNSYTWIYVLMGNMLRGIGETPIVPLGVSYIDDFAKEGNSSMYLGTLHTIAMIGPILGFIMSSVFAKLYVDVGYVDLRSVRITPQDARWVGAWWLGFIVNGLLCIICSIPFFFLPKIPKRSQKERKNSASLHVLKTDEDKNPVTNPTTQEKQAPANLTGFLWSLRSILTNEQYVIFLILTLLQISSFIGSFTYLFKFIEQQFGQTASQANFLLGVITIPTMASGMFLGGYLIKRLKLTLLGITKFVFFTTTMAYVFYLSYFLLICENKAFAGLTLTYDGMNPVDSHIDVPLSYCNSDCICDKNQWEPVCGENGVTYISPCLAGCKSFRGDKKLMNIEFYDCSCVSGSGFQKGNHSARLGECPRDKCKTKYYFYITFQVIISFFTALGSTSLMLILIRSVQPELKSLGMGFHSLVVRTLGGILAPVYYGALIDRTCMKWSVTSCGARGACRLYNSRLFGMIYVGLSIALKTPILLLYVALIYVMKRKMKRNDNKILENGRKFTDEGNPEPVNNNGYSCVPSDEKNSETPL
Experimental: Transport inhibition assays using 8-(2-[fluoresceinyl]-aminoethylthio)-adenosine-3′,5′-cyclic-monophosphate (8-FcA) were completed as previously described. OAT1B2 overexpressing cells and vector control cells were grown to confluency in a 96-well plate. Cells were washed, then incubated for 15 min with 100 μL phenol red-free DMEM containing gilteritinib or vehicle (DMSO). The media was removed, then cells were incubated with 45 μL media containing 25 μM 8-FcA for 30 min. The media was removed and cells were washed three times with ice cold PBS. Fluorescence was measured on a plate reader at excitation and emission wavelengths of 485 and 535 nm, respectively. Cells were lysed with 0.2% nitric acid at 4 °C overnight and a Pierce protein assay was used to normalize the data to total protein.

[3] = CYP3A(−/−) on FVB/NTac background, CYP3A(−/−) male mice, itraconazole 100 mg/kg 30 min before
[4] = CYP3A(−/−) on FVB/NTac background, CYP3A(−/−) male mice, no co-treatment
[5] = DBA/1J (wild-type), Wild-type DBA/1J male mice, no co-treatment
[6] = FVB (wild-type), Wild-type FVB male mice, itraconazole 100 mg/kg 30 min before
[7] = FVB (wild-type), Wild-type FVB male mice, no co-treatment
[8] = OATP1B2(−/−) on DBA1/lacJ background, OATP1B2(−/−) male mice, itraconazole 100 mg/kg 30 min before
[9] = OATP1B2(−/−) on DBA1/lacJ background, OATP1B2(−/−) male mice, no co-treatment, experiment compared with itraconazole co-treatment
[10] = OATP1B2(−/−) on DBA1/lacJ background, OATP1B2(−/−) male mice, no co-treatment, experiment compared with wild-type DBA/1J

CCc1nc(C(N)=O)c(Nc2ccc(N3CCC(N4CCN(C)CC4)CC3)c(OC)c2)nc1NC1CCOCC1 [Gilteritinib]
Gilteritinib AUC Fold Increase ([1]; CYP3A(−/−) mice, no co-treatment, vs. WT): 1.3 (vs. WT) fold
Gilteritinib AUC Fold Increase ([1]; CYP3A(−/−) mice, no co-treatment, vs. WT, listed as gilteritinib): 1.3 fold
Gilteritinib AUC Fold Increase ([1]; CYP3A(−/−) mice, with itraconazole 100 mg/kg vs. Vehicle): 0.97 (vs. Vehicle) fold
Gilteritinib AUC Fold Increase ([1]; OATP1B2(−/−) mice, no co-treatment, vs. WT): 1.4 (vs. WT) fold
Gilteritinib AUC Fold Increase ([1]; OATP1B2(−/−) mice, no co-treatment, vs. WT, listed as gilteritinib): 1.4 fold
Gilteritinib AUC Fold Increase ([1]; OATP1B2(−/−) mice, with itraconazole 100 mg/kg vs. Vehicle): 0.84 (vs. Vehicle) fold
Gilteritinib AUC Fold Increase ([1]; Wild-type FVB mice, with itraconazole 100 mg/kg vs. Vehicle): 2.5 (vs. Vehicle) fold
Gilteritinib AUC Fold Increase ([1]; Wild-type FVB mice, with itraconazole 100 mg/kg vs. Vehicle, listed as gilteritinib): about 2.5 fold
Cmax [1, 3]: 430 ng/mL
AUC(0-t) [1, 3]: 5840 ng·h/mL
Cmax [1, 4]: 380 ng/mL
AUC(0-t) [1, 4]: 5990 ng·h/mL
Cmax [1, 5]: 260 ng/mL
AUC(0-t) [1, 5]: 4550 ng·h/mL
Cmax [1, 6]: 960 ng/mL
AUC(0-t) [1, 6]: 11500 ng·h/mL
Cmax [1, 7]: 310 ng/mL
AUC(0-t) [1, 7]: 4650 ng·h/mL
Cmax [1, 8]: 1350 ng/mL
AUC(0-t) [1, 8]: 15000 ng·h/mL
Cmax [1, 9]: 1430 ng/mL
AUC(0-t) [1, 9]: 17800 ng·h/mL
Cmax [1, 10]: 390 ng/mL
AUC(0-t) [1, 10]: 6160 ng·h/mL
IC50 [2]: 1830 nM
